Reference: patent publication US11197856B2, “Bicyclic compounds and methods for their use in treating autism” (priority 2013, dated 2021)

Key:
[1] = test system: genetic markers related to neuroplasticity; test: PBBI in rats: neuroplasticity mRNA arrays; assay type: in vivo
From the text: (§1) The unilateral frontal PBBI model, which mimics the ballistic dynamics of a bullet or fragment wound to the head (Williams, 2003; Williams, 2006), was induced by stereotactic insertion of a custom probe through the right frontal cortex. A temporary cavity was formed by the rapid inflation/deflation (i.e. <40 msec) of an elastic balloon attached to the end of the probe. The PBBI apparatus consisted of a computer-controlled hydraulic pressure generator (Mitre Corp McLean, Va.), a PBBI probe and a stereotaxic frame equipped with a custom-designed probe holder as previously described (Lu, 2009; Williams, 2003). The injury severity was determined by the size of the balloon under control of the computerized hydraulic pressure. The balloon diameter calibrated to 0.63 cm expansion represented 10% of the total rat brain volume thus expressing a 10% PBBI. All surgeries were done under anaesthesia. Groups tested: Sham+vehicle, PBBI+vehicle, PBBI+cG-2-AllylP (30 mg/kg by oral gavage, 30 min post-injury, and again once daily until endpoint). AU procedures were approved by the Institutional Animal Care and Use Committee of WRAIR. Animals were housed in a facility accredited by the AAALAC.
cG-2-AllylP (or vehicle) was administered to the animals via oral gavage at a dose of 30 mg/kg.
cDNA was generated. From total RNA from individual animals using random primers. cDNA was plated unto a targeted PCR array produced by SA Biosciences and product was detected using SyBr green fluorescence. Ct levels were normalized to beta actin. Injury results were compared to sham to evaluate relative quantities (RQ) (n=6 per group).

ATF3 = test: PBBI in rats: ATF3 Western blotting; assay type: in vivo; conditions: 24 hrs. after PBBI
From the text: as §1, with “AAALAC. […]” for “AAALAC.”
(§2) Samples were analysed at 24 hr and 3 and 7 days post-injury for all groups (sham+vehicle, PBBI+vehicle, PBBI+cG-2-AllylP). […]

BCL2 = test: PBBI in rats: BCL2 Western blotting; assay type: in vivo; conditions: 24 hr, 3 and 7 days after PBBI
From the text: as §1, with “AAALAC. […]” for “AAALAC.”
as §2

MeCP2 knockout mice = test: Nocturnal activity measurements; assay type: in vivo; conditions: MeCP2 knockout mice after 6 weeks; nocturnal infrared beam crossing
Procedure: Spontaneous motor activity is measured by using an infrared beam-activated movement-monitoring chamber (Opto-Varimax-MiniA; Columbus Instruments, Columbus, Ohio). For each experiment, a mouse is placed in the chamber at least 3 h before recordings started. Movement is monitored during the normal 12-h dark cycle (7 p.m. to 7 a.m.). One dark cycle per animal per time point is collected.
MeCP2−/y mice develop Rett-like symptoms beginning at 4-6 weeks of age when they progressively become lethargic, develop gait ataxia and […] (Chen et al., 2001). Baseline locomotor activity is also recorded in mice after 6 weeks by counting nocturnal infrared beam crossing events within a caged area.

[2] = test system: growth-associated protein-43 (GAP-43); test: PBBI in rats: GAP-43 immunohistochemistry in hippocampus; assay type: in vivo, Sprague-Dawley rats; conditions: 30 mg/kg oral once daily
Procedure: The methods for producing PBBI in this Example is the same as described above for Example 26. Adult Sprague-Dawley rats were randomly assigned into three groups: sham (craniotomy only), PBBI+vehicle (i.e. H2O), and PBBI+cG-2-AllylP. cG-2-AllylP (or vehicle) was administered via oral gavage at 30 mg/kg at 30 min post-injury and continued once daily thereafter for 7, 14 or 28 days. At each treatment endpoint, rats were perfused and brains were processed for histological analysis (n=5-6/group/time-point). For detection of axonal sprouting, immunohistochemical detection of growth-associated protein-43 (GAP-43) was employed. Synaptogenesis was determined by immunohistochemistry for synaptophysin (SYN). For histological quantification, the integrated density in the hippocampal region was determined using NIH ImageJ software.

[3] = test system: layer 5 pyramidal neurons in sections of motor cortex; test: Golgi staining of cortical dendritic spines; assay type: in vivo, mice; conditions: knockout neurons; P28
Procedure: Samples (<1 cm) from P28 mice are fixed in 10% formalin and 3% potassium bichromate for 24 hours. Tissue is then transferred into 2% silver nitrate for 2 days in the dark at room temperature. Sections from these samples are then cut at 30 μm thickness into distilled water. Sections corresponding to motor cortex are mounted onto slides, air dried for 10 minutes, and then dehydrated through sequential rinses of 93% alcohol, 100% alcohol, and xylene, and then sealed with a coverslip. Images re acquired at 10× (whole cell) and 100× (spine imaging) using a Zeiss Pascal 3 Exciter confocal microscope.
We use Golgi staining to label neurons sparsely and distinctly, and applied high-resolution confocal imaging to measure dendritic spine density and morphology in the labelled cells, restricting analysis to layer 5 pyramidal neurons in sections of motor cortex from critical period mice (P28).
While low-magnification imaging clearly delineates the extent of the dendrites of the pyramidal cells we use higher magnifications to count synaptic contacts and determine the morphological class of each spine. We classify spines as either large and bulbous (“mushroom”, M), short and stubby (“stubby”, S), short and thin (“thin”, T) or filopodia (F).

p-ERK1/2 = test: Phospho-flow cytometry of lymphocytes, p-ERK1/2; assay type: in vivo; conditions: fmr1-knockout mice; 15, 30, 60 and 240 minutes after a single treatment
From the text: Lymphocytes are isolated from five fmr1-knockout and five wild-type titter mate control mice, per study time after injection with cG-2-AllylP. Lymphocytes are examined for activation of two signaling effectors, p-ERK1/2 and p-Akt using phosphorylation status as a measure of activation by flow cytometry (phospho-flow).
1. Flow cytometry total and phosphorylated ERK in lymphocytes

MeCP2 deficient mice = test: Seizure activity, electroencephalograph recordings in MeCP2 deficient mice; assay type: in vivo
From the text: Electroencephalograph: recordings of wild-type mice and MeCP2 deficient mice treated with either saline or cG-2-AllylP are obtained using methods described in U.S. Pat. No. 7,714,020, incorporated fully by reference.

Q: For `C=CC[C@]12CCCN1C(=O)CNC2=O` [cG-2-AllylP, (8aS)-Allyl-hexahydropyrrolo[1,2-a]pyrazine-1,4-dione], which “Gria 4 mRNA expression” value ([1]; 24 hr. time point after PBBI) is on record?
A: significantly increased Gria 4

Q: And the “BDNF mRNA expression (trend)” value ([1]; after PBBI)?
A: decreased BDNF

Q: And the “Crem mRNA expression (trend)” value ([1]; after PBBI)?
A: decreased Crem

Q: What about the “NTF3 mRNA expression (trend)” value ([1]; after PBBI) of the same molecule?
A: decreased NTF3

Q: What about the “NTF4 mRNA expression (trend)” value ([1]; after PBBI) of the same molecule?
A: decreased NTF4

Q: What about the “Pcdh8 mRNA expression (trend)” value ([1]; after PBBI) of the same molecule?
A: decreased Pcdh8

Q: And the “Pim1 mRNA expression (trend)” value ([1]; after PBBI)?
A: decreased Pim1

Q: And the “Ppp3ca mRNA expression (trend)” value ([1]; after PBBI)?
A: increased Ppp3ca

Q: What about the ATF3 expression (ATF3) of the same molecule?
A: decreased ATF3 at 24 hrs. after PBBI

Q: What about the BCL2 levels (BCL2) of the same molecule?
A: did not significantly alter

Q: And the locomotor activity levels (MeCP2 knockout mice)?
A: elevates these levels

Q: What about the “injury-induced reduction in GAP-43 expression” value ([2]; 7d or 14d post-PBBI) of the same molecule?
A: no effect on injury-induced reductions

Q: What about the “PBBI-induced reduction in GAP-43 expression” value ([2]; 28 days post-injury) of the same molecule?
A: attenuated PBBI-induced reductions

Q: What about the “density of spines per unit branch” value [3] of the same molecule?
A: largely ameliorated in the knockout with treatment

Q: And the “mean fluorescent intensity (MFI) for p-ERK1/2” value (p-ERK1/2)?
A: decreases at all time points

Q: And the “motor seizures and non-convulsive seizures” value (MeCP2 deficient mice)?
A: effective in decreasing both motor seizures and non-convulsive seizures
